According to a melting point compilation (Tetko et al.; mined from patent text by program, amines drawn as free bases though some values may be those of a salt):

SMILES	melting point
CC(C)(C)OC(=O)C1CCNC1=S (stereo not given)	110 to 111 °C
CSc1ccc(N=Cc2ccc(F)cc2)cc1	157 to 158 °C
Cc1cc2cc(CN3CCCC3)cnc2cc1NC(=O)c1ccc(-c2ccc(Cl)cc2)nc1	232 to 237 °C
O=c1c2c(Cl)cc(Cl)cc2n(Cc2ccccc2)c(=O)n1CC1CCCCC1	147 to 149 °C
Cc1ccc(CS(=O)C2=C(O)CC(C)(C)CC2=O)cc1 (stereo not given)	89 to 90.5 °C
Brc1ccc(OCCC(c2ccccc2)c2ccccc2)cc1	70 to 71 °C
CCCCC(=O)Nc1ccc(Cl)c(-n2nc(CCCC)c(Cc3ccc(-c4ccccc4S(=O)(=O)NC(=O)c4ccccc4Cl)cc3)c2C(=O)O)c1	> 110 °C
O=C1COc2ccc(C3=Cc4ccccc4OC3c3ccccc3)cc2N1 (stereo not given)	246 to 249 °C
S=C1NCCSc2ccsc21	138 to 139 °C
c1ccc(COc2cccc(OCc3ccccc3)c2OCc2ccccc2)cc1	67 to 68 °C
COc1cccc(-n2cccn2)c1C#N	93 to 94 °C
CN(C)CCN(C(=O)c1cc([N+](=O)[O-])ccc1Br)c1ccnc2cc3c(cc12)OCO3	204 to 205 °C
Clc1ncc(Br)c(NC2CCCC2)n1	95 to 96 °C
Oc1c(Cl)cc(Cl)c2cc(Cl)cnc12	144 to 147 °C
COc1ccccc1OC(c1ccccc1)C(O)CN (stereo not given)	80 to 110 °C
CN1CCN(c2ccc([N+](=O)[O-])c(N)c2)CC1	109 to 110 °C
CCCC(=O)C(=CNc1ccc(CO)cc1)C(=O)OCC	44 to 46 °C
CCOc1c(-c2ccc(S(C)(=O)=O)cc2)cnn(-c2ccc(F)c(F)c2)c1=O	121 to 123 °C
COC(=O)NC1CCN(c2ncc3ncnc(Nc4ccc(F)c(Cl)c4)c3n2)CC1	195 to 197 °C
CCc1c(C)sc2ncnc(Cl)c12	52 to 56 °C
Nc1ccc(Br)cc1C(=O)c1ccccc1	109 to 110 °C
C[C@@H]1C[C@@H]2c3cccc4c3N(CCNC4)[C@@H]2C1	155 to 158 °C
OC1(c2cccc(Cl)c2)C2=NCCCN2c2ccccc21 (stereo not given)	186 to 187 °C
O=C(C1NCCc2occc21)N1CCCC1 (stereo not given)	85 to 86 °C
COC(=O)CCC(=O)Nc1cccc(COc2ccc(C(C)=O)c(OC)c2)c1	124 °C
COc1ccc2c(c1)C(C(=O)N(Cc1ccc(N)cc1)c1ccc(C(C)C)cc1)CCC2 (stereo not given)	115 to 117 °C
C[C@@H](Cc1ccc(O)cc1)NS(=O)(=O)c1ccccc1	92 to 94 °C

SMILES	melting point
CNc1nc(O)cc(O)n1	290 °C
CNc1c(NCCSCc2csc(CN(C)C)n2)c(=O)c1=O	163 to 167 °C
CC(C)N(CCC(c1ccccc1)c1cc(Br)ccc1OCc1ccccc1)C(C)C (stereo not given)	52 to 56 °C
O=C(c1ccoc1)c1ccc2[nH]c(=O)cc(-c3cccc(Cl)c3)c2c1	> 250 °C
CCCCCCCCCCCC(=O)NC(=O)N1CC1C#N (stereo not given)	140 to 143 °C
O=C1CCC(N2Cc3c(OCc4cccc(CN5CCn6nc(C(F)(F)F)nc6C5)c4)cccc3C2=O)C(=O)N1 (stereo not given)	213 to 215 °C
Cc1nnc2ccc(-c3cccc(NC(C)C)c3)nn12	157 to 159 °C
Cc1cc(Oc2ccnc(OC(F)F)c2)nc(Oc2ccnc(OC(F)F)c2)c1	60 to 65 °C
O=C(Nc1cc(-c2ccc(-c3ccccc3)cc2)on1)c1c(Cl)cccc1Cl	256 to 259 °C
CC(C)(C)c1cc(N(C(=O)CCCC(=O)O)c2ccccc2)cc(C(C)(C)C)c1O	168 to 170 °C
CCc1ccccc1OS(=O)(=O)c1ccc(N2CCN(C)C2=O)cc1	126 to 128 °C
C=CCN(CC=C)C(=O)C1CC(C)(C)NC(C)(C)C1	64 to 67 °C
C=CCC(O)(C(=O)c1ccccc1)c1ccccc1 (stereo not given)	85 to 90 °C
N#Cc1cc(-c2ccc(Cl)cc2)cnc1N	202 to 204 °C
CC/C=C\Cn1c(=O)sc2c(N)ncnc21	134 to 135 °C
Fc1cccc(Nc2nc(Cl)nc3nc[nH]c23)c1	> 250 °C
CCCCC(C(=O)O)c1cccc(C(=O)c2cc3ccsc3s2)c1 (stereo not given)	131 °C
NS(=O)(=O)c1ccc(-c2ccco2)cc1	202 to 203 °C
O=C(O)C1=Cc2cc(Br)cc(F)c2OC1C(F)(F)F (stereo not given)	206 to 208 °C
O=[N+]([O-])c1cccc(-c2cccc([N+](=O)[O-])n2)n1	206 to 207 °C
CNc1nc2c(Cc3cccnc3)c(C)c(O)c(C)c2s1	236 to 238 °C
O=C(Nc1cccc(Cl)c1)c1cc2ccccc2s1	179 °C
CCCNC(=S)n1nc(Oc2c(Cl)cc(C(F)(F)F)cc2Cl)cc1C	71 to 73 °C
CC(=O)ON=c1c2nccc3cccc(c32)n2cccc12	177 to 179 °C
Cn1nc(CC2CC2)c2sc(Cc3cccc(C(F)(F)F)c3)c(O)c2c1=O	92 to 93 °C
COc1ccc2c(c1)CC(=O)C2	74 to 78 °C
CO/C=C(/C(=O)OC)c1ccccc1Oc1cc(Cl)ncn1	94 to 95 °C

SMILES	melting point
O=C(CCc1nc(-c2ccc(Cl)cc2)co1)OC(c1ccccc1)c1ccccc1	94 to 95 °C
CCOC(=O)CCCCCCCSc1nc(-c2ccccc2)c(-c2ccccc2)[nH]1	77 to 79 °C
O=C(O)C1=Cc2cc(Cl)c(Oc3ccc(OC(F)(F)F)cc3)cc2OC1C(F)(F)F (stereo not given)	198 to 199 °C
CCNC(=O)c1nc2cc(NC(=O)c3c(C(=O)N4CCC4)cnn3C)ccn2n1	217 to 229 °C
CSc1ccc(/C=C2/C(C)=C(CC=NO)c3cc(F)ccc32)cc1	146 to 150 °C
O=C1NCC(Cc2ccccc2OCc2ccccc2)O1 (stereo not given)	90 to 91 °C
CCOC(=O)c1cc(Cl)c(-n2nc(CC)c(C#N)c2N)c(Cl)c1	173 to 175 °C
CCCCC(C(=O)NO)S(=O)(=O)c1ccc(OC)cc1 (stereo not given)	130 °C
COCCSc1[nH]nc(-c2ccc(Cl)cc2)c1-c1ccncc1	189 to 190 °C
CC(=O)c1nn2c3c(cccc13)CCC2	62 to 64 °C
O=C(c1cnc2c(n1)CCCC2)C1CCCCC1	63.5 to 64.5 °C
COc1ccc(Cn2cc(C(=O)O)c(=O)c3ccc(N4CCNCC4)cc32)cc1	230 to 235 °C
COC(=O)C(c1ccccc1)C1CCN(c2ccc(N)cc2)CC1 (stereo not given)	125 °C
Cc1nc(SCc2ccncc2C(=O)O)sc1CC(=O)O	178 to 180 °C
Cc1cc(Nc2ncnc3ccc(-c4cccs4)cc23)ccc1OCc1ccccn1	205 to 206 °C
CCOC(=O)c1[nH]c2cccc3c2c1CCC3O (stereo not given)	166 to 170 °C
O=[PH](c1ccc(Cl)cc1)c1ccc(Cl)cc1	124 °C
COc1cc2ncnc(N3CCC(C(C)CN4CCCS4(=O)=O)CC3)c2cc1OC (stereo not given)	129 to 131 °C
Cc1nc(N2CCN(Cc3ccccc3)S2(=O)=O)sc1C(=O)NCc1cccnc1	140 to 142 °C
CCN(c1nc(C)cc(C)n1)c1ccc(N(C)C(C)=O)cc1SC	158 to 160 °C
C[C@@H](N1CCN(S(C)(=O)=O)CC1)[C@](O)(Cn1cncn1)c1ccc(F)cc1F	83 to 85 °C
Nc1ccccc1C(=O)COC(=O)c1ccccc1	125 °C
Cc1c(-c2ccccc2)oc2c(C(=O)OCCN3CCOCC3)cc(Cl)cc2c1=O	68 to 73 °C
CC1Cc2c(c(Cl)cc(F)c2N2C(=O)c3ccccc3C2=O)O1 (stereo not given)	158 to 160 °C
CC(C)(C)c1cc(Cl)nc(N)n1	87.7 to 88.9 °C
CCOC(=O)/C=C\C(=O)Oc1cccc(-c2cn3c(n2)sc2ccccc23)c1	126 to 128 °C
CON=C(C)c1ccc(-c2ccccc2NC(=O)c2c(C)nn(C)c2F)cc1	153 °C

SMILES	melting point
Cc1ccc(Cn2c(=O)c3c(Cl)cc(Cl)cc3n(Cc3ccccc3)c2=O)o1	159 to 161 °C
CCc1ccc(C(=O)Nc2ccccc2)cc1[N+](=O)[O-]	111 to 113 °C
Clc1ccc(/C=C/C2=CCN(Cc3ccccc3)CC2)cc1	123 to 125 °C
Cn1cc(Br)nc(Nc2ccc(C(=O)N3CCOCC3)cc2)c1=O	276 to 277 °C
Cc1cc(C(F)(F)F)c2cccc(O)c2n1	60 to 61 °C
CC(C)(C)OC(=O)N[C@@H](Cc1ccc(OS(=O)(=O)C(F)(F)F)cc1)C(=O)OC(c1ccccc1)c1ccccc1	110 to 112 °C
CC(C)(S)CN1CCN(Cc2ccc(O)cc2)CC1	81 °C
COc1cc2c(Nc3ccc(Sc4nccn4C)c(Cl)c3)c(C#N)cnc2cc1OCCCCl	271 to 276 °C
Nc1nc2ccccc2c2c1nc(-c1ccccc1)n2OCc1ccccc1	177 to 179 °C
COC(=O)CCc1cc(C)c(O)c(C)c1	70 to 83 °C
CC(C)(C)NC(=S)N1CCN(c2cnccn2)CC1	153 to 156 °C
O=c1nc(-c2ccc(C(F)(F)F)cn2)sc2ccccc12	207 °C
COC(=O)C1=C(C)NC(C)=C(C(=O)OCCOc2ccc(CCOC(C)=O)cc2)C1c1cccc([N+](=O)[O-])c1 (stereo not given)	110 °C
COCCOc1cc(C(F)(F)F)cc(Oc2ccc(CCNc3ncnc4nccnc34)cc2)n1	101 to 104 °C
O=c1cccc(-c2nc(=O)c3ccccc3s2)[nH]1	214 to 215 °C
N#Cc1cccc(-c2nnc(-c3cccnc3)s2)c1	258 to 261 °C
N#CC1(N2CCCC2)CCC2(CC1)OCCO2	65 to 67 °C
CCOC(=O)C(=C1CCCN1C)c1ccc(OC)cc1	81 to 82 °C
COc1cc2c(c3c1OC(C)(C)C3)C(c1cccc(NC(=O)Cc3ccncc3)c1)=NC(C)(C)C2	124 to 128 °C
CC(C)c1ccc(C(=O)C2=C(O)C(=O)N(c3ccc(OCc4ccccc4)nn3)C2c2ccc(OC(F)(F)F)cc2)cc1 (stereo not given)	269 °C
O=Cc1cc(CSc2c(Cl)cccc2Cl)ccc1O	114 to 117 °C
CCCCCCCCCCCCCCCCOCC(O)COC(c1ccccc1)(c1ccccc1)c1ccccc1 (stereo not given)	49 °C
O=C1Nc2cnncc2C(=O)C1c1c(F)cc(F)cc1F (stereo not given)	> 300 °C
CC(=O)NC(C(=O)NCc1ccccc1)c1ncc[nH]1 (stereo not given)	228 to 230 °C
